Test [1] deals with Meloidogyne incognita and Meloidogyne hapla. In kind it is in vivo. An excerpt: (§1) Test method: A peracetic acid stock solution containing 5% PAA and 22% H2O2 (VigorOx® from PeroxyChem, LLC) was used for methods that specified 1750 ppm PAA. A peracetic acid stock solution containing 15% PAA and 10% H2O2 (VigorOx SP-15) was used for methods that specified 3525 ppm PAA. A stock solution of formaldehyde (37% in 10-15% methanol) was used to prepare a 1% aqueous solution of formaldehyde (with about 0.3% methanol).
(§2) Solutions were applied as the soil drench with an application volume of 12 kL/ha. The Test Medium was: pasteurized 50:50 Loamy sand or pasteurized sand. The efficacy of PAA was evaluated in three different Greenhouse Test Assays: 1) the Tomato Root-knot Galling Index Assay using the nematode species Meloidogyne incognita and Meloidogyne hapla; 2) the Root-knot Nematode Egg Hatch Assay using the nematode species Meloidogyne incognita and Meloidogyne hapla; and 3) assay of levels of soil bacteria using Bacillus mycoides.

Test [2] has the same test system. The test can be described thus: Root-knot Nematode Egg Hatch Assay (soil drench). In kind it is in vivo. Particulars: for % Egg Hatching: Example 3, 1 ml/cm^2, sand-loam soil, relative to distilled water control (100).
Source text: as §1, §2
The Root-knot Nematode Egg Hatch Assay was carried out essentially as follows. Eggs were collected from roots of infected tomato plants. To release the eggs, the egg masses were placed in a solution of sodium hypochlorite and manually shaken. The solution was centrifuged and the eggs washed with distilled water. Eggs were kept in the dark until needed for the experiments and used in the same day of collection. The experiments were performed in pots filled with pasteurized soil inoculated with about several thousands of individual eggs and then drenched with each treatment solution and controls. The treated soils were covered and incubated for the time periods indicated below. Following the incubation period, the soils were transferred to collect hatched J2 (second stage juveniles). The collected material was observed under the microscope and the number of J2 counted.
Seedlings were inoculated and cultured in pasteurized Pemberton soil for 14 days. Seedlings were then treated with either formaldehyde, 1750 ppm PAA or 3525 ppm PAA for 13 days. Nematode eggs were extracted from infected roots and their ability to hatch was evaluated.
Test method: A peracetic acid stock solution containing 15% PAA and 10% H2O2 (VigorOx SP-15) was used for methods that specified 3750, 5000, 7500, 10000 ppm PAA. Capryleth-9 carboxylic acid (C9CA) was used at concentrations of 5000 and 10000 ppm. A stock solution of formaldehyde (37% in 10-15% methanol) was used to prepare a 1% aqueous solution of formaldehyde. The final methanol concentration was about 0.3%.
Solutions were applied as a soil drench with an application volume of 12 kL/ha. The Test Medium was pasteurized Pemberton loamy soil, sand or pasteurized sand. The efficacy of PAA was evaluated with the Root-Knot Nematode Egg Hatch Assay using the nematode species Meloidogyne incognita and Meloidogyne hapla.
Seedlings were inoculated and cultured for 22 days and then treated for 21 days with either PAA alone at various concentrations, C9CA alone at various concentrations, or a combination of PAA and C9CA. Nematode eggs were extracted from infected roots and their ability to hatch was evaluated.
Test method: A peracetic acid stock solution containing 15% PAA and 10% H2O2 (VigorOx SP-15) was used for methods that specified 3500 and 20,000 ppm PAA. Capryleth-9 carboxylic acid (C9CA) was used at concentrations of 250 and 10000 ppm.
Solutions were applied as a soil drench with an application volume of 1 ml/cm^2. The Test Medium was pasteurized sand-loam soil. The efficacy of PAA was evaluated with the Root-knot Nematode Egg Hatch Assay using the nematode species Meloidogyne incognita and Meloidogyne hapla.
The viability of the root-knot nematodes eggs used for each set of experiments in this example was also evaluated. Eggs were incubated with the different solutions in glass dishes in the dark at 25° C. They were observed daily under the microscope to confirm that the eggs were viable and able to hatch in water after 18 hr/24 hr of incubation.

Test [3] relates to Bacillus mycoides. In kind it is cell-based. Particulars: treated four days, soil.
Source text: as §1, §2
Soil was inoculated with Bacillus mycoides, incubated for five days and then treated with formaldehyde or […] for four days. Bacteria were collected from soil and their levels were evaluated based on colony forming units.

The test system of test [4] is Bacillus subtilis ATCC 19659. Nature of the test: Sporicidal assay in soil. The note with it: 3525 ppm PAA; 1 hour, 2 and 7 days treatment. It counts as cell-based. As to the method: Test method: A peracetic acid stock solution containing 15% PAA and 10% H2O2 (VigorOx SP-15) was used for methods that specified 3525 ppm PAA. Deionized water was used as a control.
Solutions were applied as the soil drench with an application volume of 1.5 ml/cm^2. The Test Medium was pasteurized Pemberton soil. The spore inoculum was Bacillus subtilis ATCC 19659. Spores were counted as follows: Soil was pasteurized to remove background microbial content. The soil was distributed into test cells. Concentrated Bacillus subtilis ATCC 19659 spore suspension was diluted in Butterfield's buffer and used as the inoculum in this test. For titer determination, the inoculum was diluted in Butterfield's buffer and plated on Petrifilm APC. In order to test for antimicrobial efficacy following treatments, soil was scooped from the cell and measured into a sterile plastic centrifuge tube. Deionized water was then added to each soil sample. The tubes were then capped, shaken to suspend soil, and vortexed at maximum speed using the lab vortex. The samples were allowed to settle for several seconds, and then 2 mL of fluid was removed from the tube. One ml of the removed sample was diluted in 9 mL Butterfield's buffer. The remainder of the removed sample was plated onto Petrifilm APC. […] The plates were all incubated at 30±2° C. for 2-5 days and then colonies on the plates were counted.

For test [5], the system named is Aspergillus niger ATCC 16404. The test can be described thus: Fungicidal assay in soil. It counts as cell-based. Here is the method:
Test method: A peracetic acid stock solution containing 15% PAA and 10% H2O2 (VigorOx SP-15) was used for methods that specified 3500 and 20,000 ppm PAA. Capryleth-9 carboxylic acid (C9CA) was used at concentrations of 5000 and 30,000 ppm.
Solutions were applied as a soil drench with an application volume of 1.5 ml/cm^2. The Test Medium was pasteurized Pemberton soil. The spore inoculum was Aspergillus niger ATCC 16404. The fungicidal activity of the compositions was evaluated as follows: Soil was pasteurized to remove background microbial content. The soil was the filled into test cells. Aspergillus niger ATCC 16404 was grown on Potato Dextrose Agar (PDA) plates for 5 days at 35° C. A culture for test was prepared by washing a plate with Butterfield's buffer, grinding in a sterile tissue grinder, and filtering through a cell filter to remove hyphae and debris. The suspension was diluted 1:100 in Butterfield's buffer and was added to the soil as the inoculum. The inoculum was enumerated on Petrifilm APC to determine the titer. In order to analyze antimicrobial efficacy following the treatments, soil was scooped from the cell and weighed into a sterile plastic cup. Sterile deionized water was added to the cup using a serological pipette. The cups were then capped, shaken to suspend soil, and vortexed at maximum speed using the lab vortex. The samples were allowed to settle for several seconds, and then 2 mL of fluid was removed from the tube. One ml of the removed fluid was diluted in 9 mL Butterfield's buffer. The remaining removed fluid was plated onto Petrifilm Petrifilm YM. The diluted sample was further serially diluted and plated to 10^−3 on YM. The plates were all incubated at 35±2° C. for 3 to 4 days and colonies were counted.

This is an account of results in patent US20180103638A1, “SOIL TREATMENT” (PeroxyChem LLC, priority 2016, published 2018).

“Also recorded” adds a separate entry of the source. Where two headings read alike, the source gives them in different places.

With `C=O` [Formaldehyde, formaldehyde, reference compound], the “Root-knot Galling Index” value in test [1] (in vivo) came out at 2. In test [2] (in vivo), the “% Reduction of J2 Population” value is listed as 60% and the “% Reduction of J2 population” value is 78%. Besides, in test [3] (at 1%), the “% Reduction in population (CFU's)” value was 42.5%.
Take Capryleth-9 Carboxylic Acid [C9CA]: the “% Reduction of J2 Population” value in test [2] (Example 2, 10000 ppm C9CA, 12 kL/ha, 21 days after treatment) was found to be 10%. Besides, the “% Egg Hatching” value in test [2] (250 ppm C9CA) is recorded as 66%.
For `CC(=O)OO` [PAA, peracetic acid], the “Root-knot Galling Index” value in test [1] (1750 ppm PAA, soil drench 12 kL/ha, treated 27 days, scale 0=no galling to 10=severe galling) is reported as “only a modest reduction”. Moreover, the “% Reduction of J2 population” value in test [2] (Example 1, 1750 ppm PAA, 12 kL/ha, treated 13 days, Pemberton soil) is recorded as “did not reduce”; in test [2] (Example 1, 3525 ppm PAA, 12 kL/ha, treated 13 days, Pemberton soil), 51%. Also, the “% Reduction of J2 Population” value in test [2] (Example 2, 5000 ppm PAA, 12 kL/ha, 21 days after treatment) stood at 20%; in test [2] (Example 2, 10000 ppm PAA, 12 kL/ha, 21 days after treatment) it was 28%. In addition, the “% Egg Hatching” value in test [2] (20000 ppm PAA) is recorded as 53%. The “% Reduction in population (CFU's)” value in test [3] (1750 ppm PAA) is given as 47.5%. Moreover, the “bacterial spores capable of giving rise to viable colonies recovered” value in test [4] is reported as “no bacterial spores capable of giving rise to viable colonies were recovered”. For the same molecule, the “Log10 CFU” value came out at 3.2 Log10 CFU in test [5] (3500 ppm PAA, 1 hour); 0.0 Log10 CFU in test [5] (3500 ppm PAA, 24 hours); 0.0 Log10 CFU in test [5] (7500 ppm PAA, 1 hour); 0.0 Log10 CFU in test [5] (7500 ppm PAA, 24 hours). For the same molecule, the “Log10 Reduction” value is “completely eliminated; also recorded: Total kill” in test [5] (3500 ppm PAA, 24 hours); “Total kill” in test [5] (7500 ppm PAA, 1 hour); “Total kill” in test [5] (7500 ppm PAA, 24 hours). In addition, the “elimination of Aspergillus niger” value in test [5] (7000 ppm PAA, one hour of treatment) was “complete elimination”.
